This assay deals with HIV particles pseudotyped with SARS-CoV-2 S. It counts as cell-based.

As to `CCN(CC)CCCC(C)Nc1ccnc2cc(Cl)ccc12` (stereo not shown) [chloroquine, reference compound], the “Entry of pseudotyped SARS-CoV-2 and its μS1/S2 mutant” value was “efficiently blocked entry”.

These data come from US20230149401A1 (priority 2020, published 2023).
